According to ChEMBL document CHEMBL1201862, “PubChem BioAssay data set” (2004):
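Dose response: 5 concentrations. Exposure: 48 h. Format: 96-well plates. Endpoint: linear interpolation; highest concentration if not reached. The concentration for 50% growth inhibition is given as GI50.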 Activity calls are given as the source filed them. Rule as the data show it: active = GI50 up to about 1.1 µM and inactive = higher.

Columns and labels:
Assay in all cases: NCI tumour cell line growth inhibition, 48 h
T47D = tested on: T47D
MDA-MB-435 = tested on: MDA-MB-435
SK-MEL-5 = tested on: SK-MEL-5
SW-620 = tested on: SW-620
RXF 393 = tested on: RXF 393
PC-3 = tested on: PC-3
DMS-273 = tested on: DMS-273
NCI-H522 = tested on: NCI-H522
DU-145 = tested on: DU-145
OVCAR-8 = tested on: OVCAR-8
HCT-15 = tested on: HCT-15
LOX IMVI = tested on: LOX IMVI
SK-OV-3 = tested on: SK-OV-3
DLD-1 = tested on: DLD-1
M19-MEL = tested on: M19-MEL
IGROV-1 = tested on: IGROV-1
M14 = tested on: M14
SR = tested on: SR
SF-295 = tested on: SF-295
OVCAR-4 = tested on: OVCAR-4
SNB-75 = tested on: SNB-75
SK-MEL-2 = tested on: SK-MEL-2
Malme-3M = tested on: Malme-3M
A498 = tested on: A498
SK-MEL-28 = tested on: SK-MEL-28
NCI-H23 = tested on: NCI-H23
Hs-578T = tested on: Hs-578T
NCI-H460 = tested on: NCI-H460
KM-20L2 = tested on: KM-20L2
TK-10 = tested on: TK-10
OVCAR-3 = tested on: OVCAR-3
MDA-MB-231 = tested on: MDA-MB-231
UACC-257 = tested on: UACC-257
BT-549 = tested on: BT-549
HCT-116 = tested on: HCT-116
EKVX = tested on: EKVX
NCI-H226 = tested on: NCI-H226
UACC-62 = tested on: UACC-62
HOP-18 = tested on: HOP-18
KM12 = tested on: KM12
CAKI-1 = tested on: CAKI-1
A549 = tested on: A549
NCI/ADR-RES = tested on: NCI/ADR-RES
U-251 = tested on: U-251
HOP-62 = tested on: HOP-62
MCF7 = tested on: MCF7
LXFL 529 = tested on: LXFL 529
K562 = tested on: K562
MOLT-4 = tested on: MOLT-4
UO-31 = tested on: UO-31
SF-268 = tested on: SF-268
HT-29 = tested on: HT-29
DMS-114 = tested on: DMS-114
HL-60 = tested on: HL-60
SF-539 = tested on: SF-539
786-0 = tested on: 786-0
SN12C = tested on: SN12C
CCRF-CEM = tested on: CCRF-CEM
XF498 = tested on: XF498
HCC 2998 = tested on: HCC 2998
SNB-19 = tested on: SNB-19
HOP-92 = tested on: HOP-92
ACHN = tested on: ACHN
OVCAR-5 = tested on: OVCAR-5
COLO 205 = tested on: COLO 205
RPMI-8226 = tested on: RPMI-8226
SNB-78 = tested on: SNB-78

O=C(c1ccccc1)c1nc2ccc(Cl)cc2cc1C(Br)Br
GI50 (T47D): 200 nM (active)
GI50 (MDA-MB-435): 282 nM (active)
GI50 (SK-MEL-5): 692 nM (active)
GI50 (SW-620): 185 nM (active)
GI50 (RXF 393): 216 nM (active)
GI50 (PC-3): 225 nM (active)
GI50 (DMS-273): 286 nM (active)
GI50 (NCI-H522): 1820 nM (inactive)
GI50 (DU-145): 1030 nM (active)
GI50 (OVCAR-8): 242 nM (active)
GI50 (HCT-15): 310 nM
GI50 (LOX IMVI): 1470 nM (inactive)
GI50 (SK-OV-3): 605 nM (active)
GI50 (DLD-1): 203 nM (active)
GI50 (M19-MEL): 418 nM (active)
GI50 (IGROV-1): 735 nM (active)
GI50 (M14): 1720 nM (inactive)
GI50 (SR): 1680 nM (inactive)
GI50 (SF-295): 261 nM (active)
GI50 (OVCAR-4): 407 nM (active)
GI50 (SNB-75): 278 nM (active)
GI50 (SK-MEL-2): 450 nM (active)
GI50 (Malme-3M): 1600 nM (inactive)
GI50 (A498): 1790 nM (inactive)
GI50 (SK-MEL-28): 261 nM (active)
GI50 (NCI-H23): 304 nM (active)
GI50 (Hs-578T): 193 nM (active)
GI50 (NCI-H460): 281 nM (active)
GI50 (KM-20L2): 250 nM (active)
GI50 (TK-10): 687 nM (active)
GI50 (OVCAR-3): 326 nM (active)
GI50 (MDA-MB-231): 68.5 nM (active)
GI50 (UACC-257): 525 nM (active)
GI50 (BT-549): 144 nM (active)
GI50 (HCT-116): 108 nM (active)
GI50 (EKVX): 493 nM (active)
GI50 (NCI-H226): 1680 nM (inactive)
GI50 (UACC-62): 569 nM (active)
GI50 (HOP-18): 344 nM (active)
GI50 (KM12): 340 nM (active)
GI50 (CAKI-1): 552 nM (active)
GI50 (A549): 1440 nM (inactive)
GI50 (NCI/ADR-RES): 161 nM (active)
GI50 (U-251): 192 nM (active)
GI50 (HOP-62): 641 nM (active)
GI50 (MCF7): 314 nM (active)
GI50 (LXFL 529): 216 nM (active)
GI50 (K562): 244 nM (active)
GI50 (MOLT-4): 678 nM (active)
GI50 (UO-31): 385 nM (active)
GI50 (SF-268): 384 nM (active)
GI50 (HT-29): 197 nM (active)
GI50 (DMS-114): 1790 nM (inactive)
GI50 (HL-60): 222 nM (active)
GI50 (SF-539): 246 nM (active)
GI50 (786-0): 170 nM (active)
GI50 (SN12C): 252 nM (active)
GI50 (CCRF-CEM): 395 nM (active)
GI50 (XF498): 933 nM (active)
GI50 (HCC 2998): 316 nM (active)
GI50 (SNB-19): 425 nM (active)
GI50 (HOP-92): 527 nM (active)
GI50 (ACHN): 263 nM (active)
GI50 (OVCAR-5): 519 nM (active)
GI50 (COLO 205): 344 nM (active)
GI50 (RPMI-8226): 229 nM (active)

O=C(NC/C=C/CO)c1ccccc1
GI50 (SK-MEL-5): > 100000 nM (inactive)
GI50 (SW-620): > 100000 nM (inactive)
GI50 (RXF 393): > 100000 nM (inactive)
GI50 (DMS-273): > 100000 nM (inactive)
GI50 (NCI-H522): > 100000 nM (inactive)
GI50 (OVCAR-8): > 100000 nM (inactive)
GI50 (HCT-15): > 100000 nM
GI50 (LOX IMVI): > 100000 nM (inactive)
GI50 (SK-OV-3): > 100000 nM (inactive)
GI50 (DLD-1): > 100000 nM (inactive)
GI50 (M19-MEL): > 100000 nM (inactive)
GI50 (IGROV-1): > 100000 nM (inactive)
GI50 (SF-295): > 100000 nM (inactive)
GI50 (OVCAR-4): > 100000 nM (inactive)
GI50 (SNB-75): 65800 nM (inactive)
GI50 (SK-MEL-2): > 100000 nM (inactive)
GI50 (Malme-3M): > 100000 nM (inactive)
GI50 (A498): > 100000 nM (inactive)
GI50 (SK-MEL-28): > 100000 nM (inactive)
GI50 (NCI-H23): > 100000 nM (inactive)
GI50 (NCI-H460): > 100000 nM (inactive)
GI50 (KM-20L2): > 100000 nM (inactive)
GI50 (OVCAR-3): > 100000 nM (inactive)
GI50 (UACC-257): > 100000 nM (inactive)
GI50 (HCT-116): > 100000 nM (inactive)
GI50 (SNB-78): > 100000 nM (inactive)
GI50 (EKVX): > 100000 nM (inactive)
GI50 (NCI-H226): > 100000 nM (inactive)
GI50 (UACC-62): > 100000 nM (inactive)
GI50 (HOP-18): > 100000 nM (inactive)
GI50 (KM12): > 100000 nM (inactive)
GI50 (A549): > 100000 nM (inactive)
GI50 (NCI/ADR-RES): > 100000 nM (inactive)
GI50 (U-251): > 100000 nM (inactive)
GI50 (HOP-62): > 100000 nM (inactive)
GI50 (MCF7): > 100000 nM (inactive)
GI50 (K562): > 100000 nM (inactive)
GI50 (MOLT-4): > 100000 nM (inactive)
GI50 (UO-31): > 100000 nM (inactive)
GI50 (SF-268): > 100000 nM (inactive)
GI50 (HT-29): > 100000 nM (inactive)
GI50 (DMS-114): > 100000 nM (inactive)
GI50 (HL-60): > 100000 nM (inactive)
GI50 (SF-539): > 100000 nM (inactive)
GI50 (SN12C): > 100000 nM (inactive)
GI50 (CCRF-CEM): > 100000 nM (inactive)
GI50 (XF498): > 100000 nM (inactive)
GI50 (HCC 2998): > 100000 nM (inactive)
GI50 (SNB-19): > 100000 nM (inactive)
GI50 (OVCAR-5): > 100000 nM (inactive)
GI50 (COLO 205): > 100000 nM (inactive)
GI50 (RPMI-8226): > 100000 nM (inactive)
